We go through five compounds from US10493044B1, “Method for treating developmental retinal vascular disorder” (priority 2018, dated 2019).

Values joined by “and” are separate entries in the source; they are usually repeats but may differ in a detail not shown here. Equal values may be shown once.

In data set [1] the test system is placental growth factor (PLGF). The data set is described as follows: ELISA of retinal PLGF after I/R. It is filed as in vivo, rat. To be noted: pre-ischemia intravitreal 200 μg/5 μl Eylea (Eylea+I/R); Vehicle+I/R 39.53±5.25. The procedure:
(§1) DNL was purchased from the Ko Da Company (Taipei, Taiwan) and dissolved in ddH2O. For the electrophysiological, immuohistochemical and molecular biological studies, drug administration was carried out for seven days and involved various groups, namely a post-ischemia administration (daily high dose of DNL at 1 g/kg/day, I/R+DNL1.0), or pre-ischemia administration (daily high dose of DNL, DNL1.0+I/R; low dose of DNL at 0.5 g/kg/day, DNL0.5+I/R). The rats in the vehicle group that were subjected to ischemia were either post-administered (I/R+Vehicle) or pre-administered with a similar volume of vehicle (Vehicle+I/R) as the DNL group.
(§2) As compared with the Sham, Vehicle+I/R or DNL1.0+I/R group, the ischemic eyes of other groups received intravitreal injections using a 30-gauge needle connected to a 25 μl syringe after the pupil was dilated with 1% tropicamide and 2.5% phenylephrine. […]
The level of PLGF was determined using ELISA. […] The total protein in each sample was determined using a bicinchoninic acid protein kit (Thermo Fisher Scientific). The PLGF levels in the supernatant were measured using a PLGF ELISA kit (CSB-E07400r; Cusabio Life Scince) accordingly. […] The maximum absorbance (OD) at 450 nm was detected immediately using a microplate reader (Synergy H1 Hybrid Multi-Mode Reader, Biotek ELx800). […]

The nature of data set [2]: MTT cell viability assay of RGC-5 cells subjected to oxygen glucose deprivation (OGD). To be noted: mouse, RGC-5 cells subjected to oxygen glucose deprivation (OGD), cytotoxic effect. It is filed as cell-based, mouse. The method, then: (§3) Moscatilin was purchased from EMMX Biotechnology (EN10271, CA, USA) and dissolved in DMSO (vehicle). […] […] Its therapeutic effects were evaluated by MTT and Western blotting assays.
(§4) The RCG-5 cell lines were not transformed rat RGCs but, rather, mouse retinal neuronal precursors. OGDs were defined as cells that were maintained in glucose-free DMEM (Thermo Fisher Scientific Inc.) at 37° C. under the hypoxic (ischemic-like) conditions, namely 1% O2 (monitored by an analyzer; Penguin Incubator: control range 1-89%; Astec Company, Kukuoka, Japan), 94% N2 and 5% CO2. There were different groups, consisting of cells that received (i) DMSO in DMEM (control cells; DMSO+DMEM), (ii) DMSO followed by OGD (DMSO+OGD), ([…]), (iv) during OGD (During OGD Mos 0.1 μM), or (v) at 1 hour post-OGD (Post-OGD Mos 0.1 μM). At the end of the 1 day OGD period, the cell cultures were returned to fresh DMEM for another 24 h. The MTT (viability) and the Western blotting assays (NDP) were then performed.
(§5) Mitochondria NADPH dependent oxidoreductases were capable of reducing MTT to form formazan. Therefore, an increase in the amount of dark purple formazan corresponded to greater cell viability. MTT (0.5 mg/mL; Sigma-Aldrich) was added and allowed to react for 3 hr at 37° C. to the 96-well plates containing the original 100 μL of cells. The reduced MTT was then solubilized by adding 100 μL DMSO. After agitation of the plates, the OD of the solubilized formazan was measured using an ELISA reader (Synergy H1 Multi-Mode Reader BioTek Instruments) at 562 nm. Cell viability was expressed as OD values relative to the control (100%).
A general note: Formazan colour is commonly taken as a measure of viable cells.

For data set [3], the system named is RGC-5 cells. The description is as above. It is filed as cell-based, mouse. The conditions noted are these: Mus musculus. The procedure:
as §3, §4, §5

Data set [4] concerns norrie disease protein (NDP). The data set is described as follows: Western blotting of NDP relative to β-actin in RGC-5 cells subjected to OGD. The class given is cell-based, mouse. The procedure: Moscatilin was purchased from EMMX Biotechnology (EN10271, CA, USA) and dissolved in DMSO (vehicle). […] Moscatilin (0.1 μM) was administered at 1 hour pre-OGD, during OGD, or at 1 hour post-OGD. Its therapeutic effects were evaluated by MTT and Western blotting assays.
The RCG-5 cell lines were not transformed rat RGCs but, rather, mouse retinal neuronal precursors. OGDs were defined as cells that were maintained in glucose-free DMEM (Thermo Fisher Scientific Inc.) at 37° C. under the hypoxic (ischemic-like) conditions, namely 1% O2 (monitored by an analyzer; Penguin Incubator: control range 1-89%; Astec Company, Kukuoka, Japan), 94% N2 and 5% CO2. There were different groups, consisting of cells that received (i) DMSO in DMEM (control cells; DMSO+DMEM), (ii) DMSO followed by OGD (DMSO+OGD), (iii) OGD and administration of moscatilin (0.1 μM in DMEM) at 1 hour pre-OGD (Pre-OGD Mos 0.1 μM), (iv) during OGD (During OGD Mos 0.1 μM), or (v) at 1 hour post-OGD (Post-OGD Mos 0.1 μM). At the end of the 1 day OGD period, the cell cultures were returned to fresh DMEM for another 24 h. The MTT (viability) and the Western blotting assays (NDP) were then performed.
Retinal/cellular samples were retrieved and sonicated in lysis buffer, namely mammalian protein extraction reagent (MPER; HyCell). Identical quantities of denatured proteins (40 μg/30 μl/well) then underwent sodium dodecyl sulfate polyacrylamide gel electrophoresis (SDS-PAGE; Bio-Rad) as described previously. After separation, the protein bands were transferred to a polyvinylidene difluoride (PVDF) membrane and then immersed for 12 hours at 4° C. with the following primary antibodies, mouse monoclonal anti-β-actin antibody (AC-15; 1:2,000; ab6276)/anti-HIF-1α antibody (1:200; H1alpha67-ChIP Grade; Abcam Inc.), rabbit polyclonal anti-VEGF antibody (A-20; 1:200; sc-152)/anti-PKM2 antibody (1:500; ab38237), or rabbit monoclonal anti-RBP2 antibody (ab177486; 1:1000; Abcam Inc.). […] The amount of each protein was then evaluated by scanning densitometry.

In data set [5] the test system is two cell lines. To be noted: cited from earlier work.
Data set [6] has as its system HIF-1α. The data set is described as follows: Western blot of retinal HIF-1α after I/R. The conditions noted are these: intravitreal 1 day pre-ischemia: 10 μM/5 μl JIB-04, 4 μM/5 μl shikonin, 125 μg/5 μl avastin; Vehicle+I/R = 100%. It is filed as in vivo, rat. The method, then: as §1, §2
(§6) Retinal/cellular samples were retrieved and sonicated in lysis buffer, namely mammalian protein extraction reagent (MPER; HyCell). Identical quantities of denatured proteins (40 μg/30 μl/well) then underwent sodium dodecyl sulfate polyacrylamide gel electrophoresis (SDS-PAGE; Bio-Rad) as described previously. […] The amount of each protein was then evaluated by scanning densitometry.
A general note: In western blotting, separated proteins are transferred to a membrane and probed.

The subject of data set [7] is VEGF. The data set is described as follows: Western blot of retinal VEGF after I/R. It is filed as in vivo, rat. The conditions noted are these: intravitreal 1 day pre-ischemia: 10 μM/5 μl JIB-04, 4 μM/5 μl shikonin, 125 μg/5 μl avastin; Vehicle+I/R = 100%. The method, then: as §1
(§7) As compared with the Sham, Vehicle+I/R or DNL1.0+I/R group, the ischemic eyes of other groups received intravitreal injections using a 30-gauge needle connected to a 25 μl syringe after the pupil was dilated with 1% tropicamide and 2.5% phenylephrine. Specifically, the ischemic eyes received 1 day pre-ischemia intravitreal administrations of various inhibitors/antibodies, namely 10 μM/5 μl JIB-04 (Sigma-Aldrich), 4 μM/5 μl Shikonin (S7576; Sigma-Aldrich), 125 μg/5 μl Avastin (Hoffmann-La Roche), or 200 μg/5 μl Eylea (Regeneron Pharmaceuticals Inc.). One day after retinal I/R and administration of relevant compounds or after a sham procedure, the animals were sacrificed. Retinal samples were collected in order to measure the protein levels of […], RBP2, PKM2, VEGF-A and PLGF by the western blot assay or ELISA.
(§8) Ischemia induction. Each rat was anesthetized with the above anesthetics and placed in a stereotaxic frame. […]
as §6

Data set [8] relates to PKM2. As to the kind of experiment: Western blot of retinal PKM2 after I/R. It is filed as in vivo, rat. The conditions noted are these: intravitreal 1 day pre-ischemia: 10 μM/5 μl JIB-04, 4 μM/5 μl shikonin, 125 μg/5 μl avastin; Vehicle+I/R = 100%. The method, then:
as §1, §7, §8, §6

For data set [9], the system named is RBP2. The data set is described as follows: Western blot of retinal RBP2 after I/R. The class given is in vivo, rat. The conditions noted are these: intravitreal 1 day pre-ischemia: 10 μM/5 μl JIB-04, 4 μM/5 μl shikonin, 125 μg/5 μl avastin; Vehicle+I/R = 100%. The procedure:
as §1, §7, §8, §6

Turning to “Eylea: VEGF trap/anti-PLGF (Regeneron Pharmaceuticals Inc.)”, in [1], the “level of PLGF” value was 6.44 ± 0.60 pg/mL.

On to `COc1cc(CCc2cc(OC)c(O)c(OC)c2)ccc1O` [moscatilin], for which the viability (commonly a per cent measure of how many cells are alive, often set against a control) at 10 μM in data set [2] (10 μM moscatilin pre-OGD, n=4) came to 15.4 ± 3.09%. Moreover, the viability at 100 μM in [2] (100 μM moscatilin pre-OGD, n=1) was 12.5%. For the same compound, the viability at 0.1 µM in [3] (RGC5, 0.1 μM moscatilin during OGD, P=0.31 vs DMSO+OGD) was 56 ± 4.08%; in data set [3] (RGC5, 1 h, 0.1 μM moscatilin at 1 hour post-OGD, P=0.41 vs DMSO+OGD), 52.6 ± 4.16%; in data set [3] (RGC5, 1 h, 0.1 μM moscatilin at 1 hour pre-OGD, relative to DMSO+DMEM control (100%), DMSO+OGD 53.66±2.67%) it was 62.6 ± 4.35%. Moreover, the viability at 1 µM in data set [3] (RGC5, 1 μM moscatilin pre-OGD, n=4) worked out at 66.4 ± 9.35%. Besides, the “amount of NDP relative to β-actin” value in data set [4] (0.1 μM moscatilin 1 hour pre-OGD, DMSO+DMEM = 100%, DMSO+OGD 44.54±3.15%) came to 108.38±29.33%; in [4] (0.1 μM moscatilin 1 h post-OGD), 54.36±3.88%; in data set [4] (0.1 μM moscatilin during OGD), 48.99±9.89%. Moreover, in [5] (24 h, two cell lines, respectively, previous reports, read-out: IC50 of reduced cell viability), the IC50 (in general, the concentration that gives 50% inhibition) was 7 µM and 6.7 µM. Also, the toxicity to cells result in data set [5] (concentrations equal to or less than 1 μM, previous researches) is “non-toxic”.

Take `Clc1ccc(N/N=C(\c2ccccc2)c2ccccn2)nc1` [JIB-04]: the “level of HIF-1α (ratio to β-actin)” value in [6] is 53.98±2.29%. Besides, in [7], the “level of VEGF (ratio to β-actin)” value came to 27.82±1.21%. The “level of PKM2 (ratio to β-actin)” value in [8] was found to be 60.36±7.59%. In addition, the “level of RBP2 (ratio to β-actin)” value in [9] amounted to 5.83±1.43%.

As to `CC(C)=CC[C@@H](O)C1=CC(=O)c2c(O)ccc(O)c2C1=O` [shikonin], in [6], the “level of HIF-1α (ratio to β-actin)” value turned out to be 42.65±0.76%. Besides, in data set [7], the “level of VEGF (ratio to β-actin)” value was 57.55±9.40%. Moreover, the “level of PKM2 (ratio to β-actin)” value in data set [8] was found to be 44.94±10.91%. For the same compound, the “level of RBP2 (ratio to β-actin)” value in data set [9] worked out at 3.40±0.23%.

Consider “avastin: VEGF antibody (Hoffmann-La Roche)”, for which the “level of VEGF (ratio to β-actin)” value in data set [7] is 5.38±2.51%. Also, in data set [8], the “level of PKM2 (ratio to β-actin)” value came to 84.44±4.53%. Further, in data set [9], the “level of RBP2 (ratio to β-actin)” value is 78.35±3.29%.
